Data as given in publication PMC9779606, “Synthesis, Structural Characterization and Biological Activity Evaluation of Novel Cu(II) Complexes with 3-(trifluoromethyl)phenylthiourea Derivatives” (International Journal of Molecular Sciences, 2022).

How the values were obtained:
[1] = test system: C. parapsilosis ATCC 22019; test: MIC, twofold serial microdilution, standard fungal strains; details: C. parapsilosis ATCC 22019, standard strain
S. aureus 514 = test: MIC, hospital methicillin-resistant strains (MRSA); details: hospital MRSA strain S. aureus 514
[2] = test system: PC3 (metastatic prostate cancer); test: Cytotoxicity, MTT assay; type: cell-based, human; details: 72 h, mean SD
Experimental: (§1) MTT assay was performed as previously described. Experiments were repeated three times. […] Decreased relative MTT level means decreased cell viability.

[3] = test system: SW480 (primary colon cancer); test: Cytotoxicity, MTT assay; type: cell-based, human; details: 72 h, mean SD
Experimental: as §1

[4] = test system: SW620 (metastatic colon cancer); test: Cytotoxicity, MTT assay; type: cell-based, human; details: 72 h, mean SD
Experimental: as §1

P. aeruginosa ATCC 27853 = test: MIC, twofold serial microdilution, standard strains; details: P. aeruginosa ATCC 27853, standard strain
S. aureus 568 = test: MIC, hospital methicillin-resistant strains (MRSA); details: hospital MRSA strain S. aureus 568
S. epidermidis 437 = test: MIC, hospital methicillin-resistant strains (MRSE); details: hospital MRSE strain S. epidermidis 437
S. aureus 586 = test: MIC, hospital methicillin-resistant strains (MRSA); details: hospital MRSA strain S. aureus 586
E. coli NCTC 10538 = test: MIC, twofold serial microdilution, standard strains; details: E. coli NCTC 10538, standard strain
[5] = test system: S. epidermidis ATCC 35984; test: as above; details: S. epidermidis ATCC 35984, standard strain
M. tuberculosis H37Rv = test: Tuberculostatic activity, Microplate Alamar Blue Assay (MABA); type: cell-based, Mycobacterium tuberculosis; details: M. tuberculosis H37Rv, standard strain, MABA
S. epidermidis 510 = test: MIC, hospital methicillin-resistant strains (MRSE); details: hospital MRSE strain S. epidermidis 510
[6] = test system: S. epidermidis ATCC 12228; test: MIC, twofold serial microdilution, standard strains; details: S. epidermidis ATCC 12228, standard strain
S. aureus 567 = test: MIC, hospital methicillin-resistant strains (MRSA); details: hospital MRSA strain S. aureus 567
S. epidermidis 469 = test: MIC, hospital methicillin-resistant strains (MRSE); details: hospital MRSE strain S. epidermidis 469
S. aureus ATCC 6538 = test: MIC, twofold serial microdilution, standard strains; details: S. aureus ATCC 6538, standard strain
S. epidermidis 471 = test: MIC, hospital methicillin-resistant strains (MRSE); details: hospital MRSE strain S. epidermidis 471
[7] = test system: Bacillus subtilis H17 (rec+); details: B. subtilis H17 (rec+); 256 µg per 9 mm disc (NOQ 2 µg per disc)
Experimental: (§2) DNA-damaging activity of compounds was tested by rec-assay using two genetically modified Bacillus subtilis strains: M45 (rec^−) and H17 (rec^+). Tested compounds were dissolved in DMSO, and 10 µL of each solution was dripped onto sterile cotton discs (Rotilabo) to load 256 µg of a given compound per 9 mm disc. Discs were placed on the surface Nutrient agar plates (Difco) inoculated with 100 µL of bacterial overnight culture and incubated for 24 h at 35 °C. After incubation, the growth inhibition zones were measured. […] Results of the genotoxicity test were estimated after 18 h of incubation at 35 °C by comparing the diameter of the inhibition zone on the B. subtilis M45 (rec^−) strain with that on the B. subtilis H17 (rec^+) strain.

[8] = test system: Bacillus subtilis M45 (rec−); details: B. subtilis M45 (rec−); 256 µg per 9 mm disc (NOQ 2 µg per disc)
Experimental: as §2

S. aureus 481 = test: MIC, hospital methicillin-resistant strains (MRSA); details: hospital MRSA strain S. aureus 481
S. epidermidis 513 = test: MIC, hospital methicillin-resistant strains (MRSE); details: hospital MRSE strain S. epidermidis 513
S. epidermidis 433 = test: MIC, hospital methicillin-resistant strains (MRSE); details: hospital MRSE strain S. epidermidis 433
S. aureus 495 = test: MIC, hospital methicillin-resistant strains (MRSA); details: hospital MRSA strain S. aureus 495
S. epidermidis 424 = test: MIC, hospital methicillin-resistant strains (MRSE); details: hospital MRSE strain S. epidermidis 424
S. aureus 497 = test: MIC, hospital methicillin-resistant strains (MRSA); details: hospital MRSA strain S. aureus 497
S. aureus 572 = test: MIC, hospital methicillin-resistant strains (MRSA); details: hospital MRSA strain S. aureus 572
S. aureus 522 = test: MIC, hospital methicillin-resistant strains (MRSA); details: hospital MRSA strain S. aureus 522
C. albicans ATCC 90028 = test: MIC, twofold serial microdilution, standard fungal strains; details: C. albicans ATCC 90028, standard strain
S. epidermidis 436 = test: MIC, hospital methicillin-resistant strains (MRSE); details: hospital MRSE strain S. epidermidis 436
S. epidermidis 420 = test: MIC, hospital methicillin-resistant strains (MRSE); details: hospital MRSE strain S. epidermidis 420

| SMILES | MIC [1] [µg/mL] | MIC (S. aureus 514) [µg/mL] | IC50 [2] [µM] | IC50 [3] [µM] | IC50 [4] [µM] | MIC (P. aeruginosa ATCC 27853) [µg/mL] | MIC (S. aureus 568) [µg/mL] | MIC (S. epidermidis 437) [µg/mL] | MIC (S. aureus 586) [µg/mL] | MIC (E. coli NCTC 10538) [µg/mL] | MIC [5] [µg/mL] | MIC (M. tuberculosis H37Rv) [µg/mL] | MIC (S. epidermidis 510) [µg/mL] | MIC [6] [µg/mL] | MIC (S. aureus 567) [µg/mL] | MIC (S. epidermidis 469) [µg/mL] | MIC (S. aureus ATCC 6538) [µg/mL] | MIC (S. epidermidis 471) [µg/mL] | Genotoxic activity, inhibition zone diameter, H17 [7] [mm] | Genotoxic activity, inhibition zone diameter, M45 [8] [mm] | further results |
| --- | --- | --- | --- | --- | --- | --- | --- | --- | --- | --- | --- | --- | --- | --- | --- | --- | --- | --- | --- | --- | --- |
| FC(F)(F)c1cccc([N-]C(=S)NCc2ccccc2)c1.FC(F)(F)c1cccc([N-]C(=S)NCc2ccccc2)c1.[Cu+2] [Cu3, Copper(II) Complex with 1-benzyl-3-[3-(trifluoromethyl)phenyl]thiourea] | 32 | 64 | 49.4 ± 2.4 | 38.3 ± 3.1 | 44.8 ± 5.6 | ≥256 | 64 | 64 | 64 | ≥256 | 64 | 16 | 64 | 64 | 64 | 64 | 64 | 64 | 15 | 15 | MIC (S. aureus 481): 64 µg/mL; MIC (S. epidermidis 513): 64 µg/mL; MIC (S. epidermidis 433): 64 µg/mL; MIC (S. aureus 495): 64 µg/mL; MIC (S. epidermidis 424): 64 µg/mL; MIC (S. aureus 497): 64 µg/mL; MIC (S. aureus 572): 64 µg/mL; MIC (S. aureus 522): 64 µg/mL; MIC (C. albicans ATCC 90028): 32 µg/mL; MIC (S. epidermidis 436): 64 µg/mL; MIC (S. epidermidis 420): 64 µg/mL |
| FC(F)(F)c1cccc([N-]C(=S)Nc2cccc(Br)c2)c1.FC(F)(F)c1cccc([N-]C(=S)Nc2cccc(Br)c2)c1.[Cu+2] [Cu4, Copper(II) Complex with 1-(3-bromophenyl)-3-[3-(trifluoromethyl)phenyl] thiourea] | ≥256 | 8 | 70.1 ± 5.3 | 89.8 ± 2.6 | 69.1 ± 1.8 | 128 | 8 | 8 | 8 | 128 | 8 | 4 | 8 | 8 | 8 | 8 | 4 | 8 | 15 | 17 | MIC (S. aureus 481): 8 µg/mL; MIC (S. epidermidis 513): 8 µg/mL; MIC (S. epidermidis 433): 8 µg/mL; MIC (S. aureus 495): 8 µg/mL; MIC (S. epidermidis 424): 8 µg/mL; MIC (S. aureus 497): 8 µg/mL; MIC (S. aureus 572): 8 µg/mL; MIC (S. aureus 522): 8 µg/mL; MIC (C. albicans ATCC 90028): ≥256 µg/mL; MIC (S. epidermidis 436): 8 µg/mL; MIC (S. epidermidis 420): 8 µg/mL |
| O.O=[N+]([O-])c1cc(NC(=S)[N-]c2cccc(C(F)(F)F)c2)ccc1Cl.O=[N+]([O-])c1cc(NC(=S)[N-]c2cccc(C(F)(F)F)c2)ccc1Cl.[Cu+2] [Cu5, Copper(II) Complex with 1-(4-chloro-3-nitrophenyl)-3-[3-(trifluoromethyl)phenyl]thiourea] | 128 | 2 | 11.7 ± 0.9 | 14.8 ± 1.2 | 19.5 ± 1.3 | >256 | 2 | 2 | 4 | >256 | 4 | 4 | 4 | 4 | 2 | 4 | 4 | 4 | 18 | 17 | MIC (S. aureus 481): 2 µg/mL; MIC (S. epidermidis 513): 2 µg/mL; MIC (S. epidermidis 433): 2 µg/mL; MIC (S. aureus 495): 2 µg/mL; MIC (S. epidermidis 424): 4 µg/mL; MIC (S. aureus 497): 2 µg/mL; MIC (S. aureus 572): 2 µg/mL; MIC (S. aureus 522): 2 µg/mL; MIC (C. albicans ATCC 90028): 128 µg/mL; MIC (S. epidermidis 436): 2 µg/mL; MIC (S. epidermidis 420): 4 µg/mL |
| CC(NC(=S)[N-]c1cccc(C(F)(F)F)c1)c1ccccc1.CC(NC(=S)[N-]c1cccc(C(F)(F)F)c1)c1ccccc1.[Cu+2] (racemic) [Cu2, Copper(II) Complex with 1-(1-phenylethyl)-3-[3-(trifluoromethyl)phenyl]thiourea] | 128 | 16 | 89.7 ± 1.9 | 41.6 ± 4.3 | 23.3 | ≥256 | 8 | 16 | 8 | ≥256 | 16 | 8 | 16 | 32 | 8 | 32 | 32 | 16 | 16 | 16 | MIC (S. aureus 481): 16 µg/mL; MIC (S. epidermidis 513): 16 µg/mL; MIC (S. epidermidis 433): 16 µg/mL; MIC (S. aureus 495): 16 µg/mL; MIC (S. epidermidis 424): 16 µg/mL; MIC (S. aureus 497): 16 µg/mL; MIC (S. aureus 572): 16 µg/mL; MIC (S. aureus 522): 16 µg/mL; MIC (C. albicans ATCC 90028): 128 µg/mL; MIC (S. epidermidis 436): 16 µg/mL; MIC (S. epidermidis 420): 16 µg/mL |
| FC(F)(F)c1cccc([N-]C(=S)NCCc2ccccc2)c1.FC(F)(F)c1cccc([N-]C(=S)NCCc2ccccc2)c1.O.[Cu+2] [Cu1, Copper(II) Complex with 1-(2-phenylethyl)-3-[3-(trifluoromethyl)phenyl]thiourea] | 64 | 64 | 100 ± 3.6 | 68.7 ± 3.4 | 62.6 ± 4.9 | 128 | 64 | 64 | 64 | ≥256 | 64 | 16 | 64 | 64 | 64 | 64 | 64 | 64 | 16 | 16 | MIC (S. aureus 481): 64 µg/mL; MIC (S. epidermidis 513): 64 µg/mL; MIC (S. epidermidis 433): 64 µg/mL; MIC (S. aureus 495): 64 µg/mL; MIC (S. epidermidis 424): 128 µg/mL; MIC (S. aureus 497): 64 µg/mL; MIC (S. aureus 572): 64 µg/mL; MIC (S. aureus 522): 64 µg/mL; MIC (C. albicans ATCC 90028): 128 µg/mL; MIC (S. epidermidis 436): 128 µg/mL; MIC (S. epidermidis 420): 64 µg/mL |
